Results reported in PMC8322070, “A novel orally active HDAC6 inhibitor T-518 shows a therapeutic potential for Alzheimer’s disease and tauopathy in mice” (Scientific Reports, 2021).

Test system: Histone H3 acetylation in mouse primary neural cultures
Experiment: Histone H3 acetylation in mouse primary neural culture (Western blotting)
Assay type: cell-based
Conditions: DIV6 mouse primary neural culture, 3 and 30 μM, 24 h
Procedure: T-518, ACY-738, Ricolinostat, and Tubastatin A were synthesized in Takeda. For in vitro cellular experiments, the compounds were solubilized with DMSO and diluted in the culture medium at the indicated concentrations. For in vivo experiments, the compound was reconstituted in 0.5% methylcellulose and administered orally at the indicated doses. After administration, mouse hippocampus was isolated and homogenized in RIPA extraction buffer (50 mM Tris–HCl, 150 mM NaCl, 1% NP-40, 0.5% sodium deoxycholate, and 0.1% SDS, pH 8.0) supplemented with protease and phosphatase inhibitor cocktail (Thermo Fischer, Waltham, MA, USA). The homogenate was centrifuged at 10,000g for 15 min and the supernatant was taken as the RIPA-soluble fraction.
Primary cortical neurons were prepared from E14 C57BL/6J mouse embryos (CLIEA Japan, Inc., Tokyo, Japan) using papain-containing Neuron Dissociation Solutions (Fujifilm Wako, Tokyo, Japan). Isolated cells were suspended in Neurobasal Medium containing B-27 (Thermo Fisher) and seeded on poly-D-lysine-coated plates (Corning, NY, USA) under 5% CO2 at 37 °C for 6 days in vitro (DIV) prior to evaluation of HDAC6 inhibitors. Cells were treated with HDAC6 inhibitors at the indicated concentrations for 24 h and lysed in RIPA extraction buffer (50 mM Tris–HCl, 150 mM NaCl, 1% NP-40, 0.5% sodium deoxycholate, and 0.1% SDS, pH 8.0) supplemented with protease and phosphatase inhibitor cocktail (Thermo Fisher).
Cell lysate or in vivo protein samples were separated by 10% SDS-PAGE, then electrophoretically transferred to 0.45 μm poly-vinylidene difluoride membranes (Millipore). Membranes were blocked for 1 h in Blocking Reagent (TOYOBO, Osaka, Japan), probed with primary antibodies followed by labeling with HRP-coupled secondary antibodies (Amersham, Piscataway, NJ), and then visualized using chemiluminescence reagent (ECL; Amersham). Images were captured using ImageQuant LAS 4000 (GE healthcare Bio-Sciences, Marlborough, MA, USA). Quantitative densitometric analyses were conducted using ImageQuant TL (GE healthcare Bio-Sciences). The protocol was slightly modified for detection of HDAC6 in cortex. Briefly, cerebral cortex was homogenized in RIPA buffer supplemented with 1 μM microstatin, 1 μM MG115, 40 μM Leupeptin, 100 μM ABSF, and 2 mM sodium orthovanadate, separated by 7.5–15% gradient SDS-PAGE and electrophoretically transferred to 0.45 μm poly-vinylidene difluoride membranes (Millipore). Membranes were blocked for 1 h with ECL Prime Blocking Reagent (Amersham, Piscataway, NJ) prior to immunoblotting, visualization, and densitometry as described above.

O=C1c2cc(-c3nnc(C(F)F)o3)cnc2CN1[C@@H]1CCCC[C@H]1NC(=O)C(F)(F)C(F)(F)F [T-518, N-[(1R,2R)-2-{3-[5-(difluoromethyl)-1,3,4-oxadiazol-2-yl]-5-oxo-5H,6H,7H-pyrrolo[3,4-b]pyridin-6-yl}cyclohexyl]-2,2,3,3,3-pentafluoropropanamide]
effect on Histone H3 acetylation: neither T-518 nor Tubastatin A at 3 and 30 μM demonstrates this activity
